Laboratory results: patent publication US4116950A, “Analogs of human β-endorphin” (Hoffmann-La Roche Inc., priority 1978, dated 1978)

Legend:
mice = assay: Analgesic potency in mice by tail-flick method (in vivo); settings: for AD50: mice, tail-flick; for relative potency: molar basis, AD50 of βh-endorphin as 100%
Text: (§1) In vitro assay of opiate activity was by the guinea pig ileum method of Kosterlitz et al, Brit. J. Pharmacol. 39, 398 (1970) and in vivo assay in mice was by the tail-flick method of D'Amour and Smith, J. Pharmacol. Exp. Therap. 72, 74 (1941). The experimental procedure and method of calculation has been outlined by Loh et al., Proc. Natl. Acad. Sci. 73, 2895 (1976) and Tseng et al., Nature 263, 239 (1976).

guinea pig ileum = assay: Opiate activity by guinea pig ileum assay (in vitro); type: cell-based; settings: for relative potency: calculated using the IC50 of βh-endorphin as 100%; for IC50: guinea pig ileum assay
Text: as §1

| Substance | AD50 (mice; intracerebroventricular) | relative potency (mice; intracerebroventricular) | AD50 (mice; intravenous) | relative potency (mice; intravenous) | relative potency (guinea pig ileum) | IC50 (guinea pig ileum) | duration of analgesic activity (mice; after iv injection compared with icv injection) | in vivo analgesic activity compared with βh-endorphin (mice; mouse, iv or icv, in words) |
| --- | --- | --- | --- | --- | --- | --- | --- | --- |
| [Ala^6,7, Phe^27, Gly^31 ] - βh -EP (YGGFMAAEKSQTPLVTLFKNAIIKNAFKKGG; Beta-endorphin; UniProt P01189 237-267, looked up, variant T6A S7A Y27F E31G) [Peptide II, analog of human β-endorphin substituted with Ala at 6 and 7, Phe at 27, Gly at 31] | 0.46(0.28-0.77) μg/mouse | 23% | 22.1(14.3-34.3) mg/kg | 49% | 118% | 38 nM |  |  |
| [D-Thr^2, Phe^27, Gly^31 ] - βh EP [Peptide IV] | 0.52(0.24-1.16) μg/mouse | 21% | ca. 32.0 mg/kg | 32% | 136% | 33 nM |  |  |
| [Nle^5, Phe^27, Gly^31 ] - βh -EP [Peptide III] | 0.31(0.14-0.72) μg/mouse | 35% | ca. 17.0 mg/kg | 65% | 118% | 38 nM |  |  |
| [Phe^27, Gly^31 ] - βh -EP (YGGFMTSEKSQTPLVTLFKNAIIKNAFKKGG; Beta-endorphin; UniProt P01189 237-267, looked up, variant Y27F E31G) [Peptide I, analog of human β-endorphin substituted with Phe at 27 and Gly at 31] | 0.09(0.08-0.11) μg/mouse | 119% | 7.5(3.4-16.5) mg/kg | 148% | 128% | 35 nM | shorter than after icv injection | greater in vivo analgesic activity than the natural peptide |
| βh -endorphin [reference compound] | 0.11(0.07-0.17) μg/mouse | 100% | 11.4(6.4-19.6) mg/kg | 100% | 100% | 45 nM |  |  |
